The values below come from patent US9783536B2, “Nitrogen-containing heterocyclic compound or salt thereof” (FUJIFILM Corporation, priority 2013, dated 2017).

Counter-ions that a name gives are not always drawn.

Assay [1] addresses T1, GST fusion human ERK2 protein (Homo sapiens, UniProt P28482).
T1 construct: purchased Carna Biosciences, Inc; host or cells: E. coli expression system
In words: ERK2 enzyme assay (2). Type of assay: biochemical. The following applies: ERK2 enzyme assay (2); read-out: ERK2 enzyme inhibitory activity (2). As to the method:
In an ERK2 enzyme assay, GLUTATHIONE S-TRANSFERASE (GST) FUSION HUMAN ERK2 PROTEIN (manufactured by Carna Biosciences, Inc.), which was produced by using an E. coli expression system, was used.
12 μL of a reaction liquid (1.25 nmol/L ERK2, 100 mmol/L Hepes, 10 mmol/L MgCl2, 1.5 mmol/L DTT, 0.003% Brij35, pH 7.5) including ERK2 protein and a test compound having a predetermined concentration was allowed to stand at room temperature for 15 minutes. Then, 3 μL of a mixture liquid of FL-PEPTIDE8 (5-FAM-IPTSPITTTYFFFKKK-COOH) (manufactured by Caliper Life Sciences), which is substrate peptide, and ATP (manufactured by Sigma-Aldrich Co. LLC.) was added thereto such that the final concentrations thereof became 4.25 μmol/L and 1 mmol/L, respectively, and an enzyme reaction was performed by allowing to stand at 25° C. for 120 minutes.
After the reaction, the enzyme reaction was stopped by adding 30 μL of a reaction stopper liquid (100 mmol/L HEPES, 11.2 mmol/L EDTA, 5.6% Brij35, pH 7.5) including a 0.5% COATING REAGENT 8 (trade name, manufactured by Perkin Elmer Inc.) thereto. Then, phosphorylated peptide and non-phosphorylated peptide were separated using LABCHIP EZ READER (trade name, manufactured by Caliper Life Sciences), and the porportion of the phosphorylated peptide was quantified.
(§1) The inhibitory activities of the compounds were evaluated using IC50 (50% inhibitory concentration). The IC50 was calculated using XLFIT (trade name, manufactured by ID Business Solutions).

Assay [2] deals with T2, human PI3Kα protein (Homo sapiens, UniProt P42336).
T2 construct: purchased Carna Biosciences, Inc; host or cells: baculovirus expression system
T2 sequence (P42336 whole entry): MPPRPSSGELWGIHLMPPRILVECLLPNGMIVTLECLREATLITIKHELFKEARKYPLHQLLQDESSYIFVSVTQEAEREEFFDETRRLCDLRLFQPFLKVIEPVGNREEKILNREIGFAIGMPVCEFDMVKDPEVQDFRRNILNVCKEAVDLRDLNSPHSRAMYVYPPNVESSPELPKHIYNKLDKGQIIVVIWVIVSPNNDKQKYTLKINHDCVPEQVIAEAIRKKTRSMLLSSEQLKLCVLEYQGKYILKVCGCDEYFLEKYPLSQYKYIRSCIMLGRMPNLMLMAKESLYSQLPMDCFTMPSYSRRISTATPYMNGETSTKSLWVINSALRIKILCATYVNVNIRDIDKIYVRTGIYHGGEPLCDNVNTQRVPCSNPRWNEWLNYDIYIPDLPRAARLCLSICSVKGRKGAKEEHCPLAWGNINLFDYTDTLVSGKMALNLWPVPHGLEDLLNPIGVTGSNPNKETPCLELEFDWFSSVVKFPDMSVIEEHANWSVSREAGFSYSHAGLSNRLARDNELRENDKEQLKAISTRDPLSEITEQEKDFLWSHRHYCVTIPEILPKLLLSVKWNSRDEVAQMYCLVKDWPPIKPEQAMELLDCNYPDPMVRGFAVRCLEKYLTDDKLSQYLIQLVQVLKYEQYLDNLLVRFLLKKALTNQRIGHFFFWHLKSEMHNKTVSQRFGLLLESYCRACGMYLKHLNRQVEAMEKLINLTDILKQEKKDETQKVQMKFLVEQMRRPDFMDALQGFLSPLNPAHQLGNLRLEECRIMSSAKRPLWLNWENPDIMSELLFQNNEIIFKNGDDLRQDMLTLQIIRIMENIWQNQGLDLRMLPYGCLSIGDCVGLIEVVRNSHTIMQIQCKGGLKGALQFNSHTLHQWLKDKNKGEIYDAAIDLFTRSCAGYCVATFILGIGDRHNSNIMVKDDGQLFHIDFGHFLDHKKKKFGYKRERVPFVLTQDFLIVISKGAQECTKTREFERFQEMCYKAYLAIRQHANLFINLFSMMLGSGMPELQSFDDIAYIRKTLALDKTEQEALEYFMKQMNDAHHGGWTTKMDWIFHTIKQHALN
T2 sequence (P27986 whole entry partner): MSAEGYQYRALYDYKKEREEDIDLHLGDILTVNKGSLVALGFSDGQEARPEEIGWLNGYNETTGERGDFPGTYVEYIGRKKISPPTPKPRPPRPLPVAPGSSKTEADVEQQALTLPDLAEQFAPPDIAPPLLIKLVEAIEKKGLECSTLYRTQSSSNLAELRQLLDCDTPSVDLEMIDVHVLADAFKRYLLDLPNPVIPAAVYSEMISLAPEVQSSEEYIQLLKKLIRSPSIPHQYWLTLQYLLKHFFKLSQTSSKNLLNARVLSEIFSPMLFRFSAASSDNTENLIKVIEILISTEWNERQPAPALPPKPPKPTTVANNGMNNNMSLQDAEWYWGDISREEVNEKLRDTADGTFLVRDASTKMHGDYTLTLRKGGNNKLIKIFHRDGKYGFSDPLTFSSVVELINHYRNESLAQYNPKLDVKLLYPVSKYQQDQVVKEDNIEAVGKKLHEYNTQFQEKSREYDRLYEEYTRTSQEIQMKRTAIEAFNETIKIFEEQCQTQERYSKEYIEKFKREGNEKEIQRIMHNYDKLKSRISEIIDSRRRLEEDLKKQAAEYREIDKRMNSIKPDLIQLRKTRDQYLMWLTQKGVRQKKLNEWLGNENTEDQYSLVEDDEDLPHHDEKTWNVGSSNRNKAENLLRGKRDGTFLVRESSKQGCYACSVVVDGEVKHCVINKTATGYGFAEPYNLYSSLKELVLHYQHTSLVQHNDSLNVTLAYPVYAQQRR
Kind of assay: PI3Kα enzyme assay (ADP-Glo). Type of assay: biochemical. Particulars: read-out: PI3Kα enzyme inhibitory activity. Here is the method:
In a PI3Kα enzyme assay, a product (manufactured by Carna Biosciences, Inc.) obtained by biotinylating a human PI3Kα protein produced by using a baculovirus expression system was used. In addition, in the detection of enzyme activity, ADP-GLO KINASE ASSAY (trade name, manufactured by PROMEGA Corporation) was used.
10 μL of a reaction liquid (4.5 nmol/L PI3Kα, 40 mmol/L Tris-HCl, 20 mmol/L MgCl2, 0.1% BSA, pH 7.5) including the human PI3Kα protein and a test compound having a predetermined concentration was allowed to stand at room temperature for 15 minutes. Then, 5 μL of a mixture liquid of L-α-phosphatidylinositol 4,5-diphosphate (PIP2) (manufactured by Sigma-Aldrich Co. LLC.) and ATP (manufactured by Sigma-Aldrich Co. LLC.), which are substrates, was added thereto such that final concentrations thereof became 50 μmol/L and 100 μmol/L, respectively, and an enzyme reaction was performed by allowing to stand at 25° C. for 60 minutes.
After the reaction, the enzyme reaction was stopped by adding 15 μL of an ADP-GLO REAGENT (trade name, manufactured by PROMEGA Corporation) thereto and allowing to stand at room temperature for 60 minutes. Then, 30 μL of a KINASE DETECTION REAGENT (trade name, manufactured by PROMEGA Corporation) was added thereto, followed by allowing to stand at room temperature for 40 minutes, and ADP produced by the enzyme reaction was quantified by emission intensity.
ENVISION (trade name, manufactured by Perkin Elmer Inc.) was used for the measurement of the emission intensity.
as §1

T1 sequence (P28482 whole entry, the tested form may be a part): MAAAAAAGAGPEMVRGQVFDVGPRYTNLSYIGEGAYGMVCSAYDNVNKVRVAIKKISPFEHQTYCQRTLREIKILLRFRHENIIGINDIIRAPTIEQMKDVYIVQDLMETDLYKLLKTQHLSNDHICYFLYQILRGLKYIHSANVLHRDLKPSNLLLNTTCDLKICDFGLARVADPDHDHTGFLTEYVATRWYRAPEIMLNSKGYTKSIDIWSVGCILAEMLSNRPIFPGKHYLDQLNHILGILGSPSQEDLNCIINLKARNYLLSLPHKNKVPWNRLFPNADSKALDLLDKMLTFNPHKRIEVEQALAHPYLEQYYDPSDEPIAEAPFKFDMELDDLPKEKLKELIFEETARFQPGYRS

With `CC(C)c1cnnc(Nc2ccc3ncc(-c4cnn(CC5CCNCC5)c4)cc3n2)c1` [Example 0485, trifluoroacetic acid salt of N-(5-isopropylpyridazin-3-yl)-7-(1-(piperidin-4-ylmethyl)-1H-pyrazol-4-yl)-1,5-naphthyridine-2-amine], the IC50 in assay [1] and in assay [2] was below 1 µM each time.
Regarding `CC(C)c1cnnc(Nc2ccc3ncc(-c4cnn(CCC5CCNCC5)c4)cc3n2)c1` [Example 0488, hydrochloric acid salt of N-(5-isopropylpyridazin-3-yl)-7-(1-(2-(piperidin-4-yl)ethyl)-1H-pyrazol-4-yl)-1,5-naphthyridine-2-amine], the IC50 in assay [1] and in assay [2] was below 1 µM throughout.
Consider `Cc1ccnnc1Nc1ccc2ncc(-c3cnn(C)c3)cc2n1` [Example 0489], for which the figures for the IC50 in assay [1] and in assay [2] were 1 to 10 µM and 10 to 50 µM, respectively.
The corresponding values for `Cc1cn(-c2cnc3ccc(Nc4cc(C(C)C)cnn4)nc3c2)cn1` [Example 0494, N-(5-isopropylpyridazin-3-yl)-7-(4-methyl-1H-imidazol-1-yl)-1,5-naphthyridine-2-amine] are below 1 µM and below 1 µM.
The corresponding values for `COc1cnnc(Nc2ccc3ncc(-c4cnn(C)c4)cc3n2)c1` [Example 0495, N-(5-methoxypyridazin-3-yl)-7-(1-methyl-1H-pyrazol-4-yl)-1,5-naphthyridine-2-amine] are below 1 µM and below 1 µM.
In the same order, the values of `COc1cnnc(Nc2ccc3ncc(-c4cnn(CCCN5CCOCC5)c4)cc3n2)c1` [Example 0496, N-(5-methoxypyridazin-3-yl)-7-(1-(3-morpholinopropyl)-1H-pyrazol-4-yl)-1,5-naphthyridine-2-amine] are below 1 µM and below 1 µM.
In the case of `CC(C)c1cnnc(Nc2ccc3ncc(-n4cnc(CO)c4)cc3n2)c1` [Example 0497, (1-(6-((5-isopropylpyridazin-3-yl)amino)-1,5-naphthyridin-3-yl)-1H-imidazol-4-yl)methanol], the IC50 in assay [1] was below 1 µM; in assay [2], 1 to 10 µM.
As to `CC(C)c1cnnc(Nc2ccc3ncc(-c4cnc(N5CCN(C)CC5)s4)cc3n2)c1` [Example 0498, N-(5-isopropylpyridazin-3-yl)-7-(2-(4-methylpiperazin-1-yl)thiazol-5-yl)-1,5-naphthyridine-2-amine], the IC50 in assay [1] and in assay [2] was below 1 µM throughout.
With `CCOc1cnnc(Nc2ccc3ncc(-c4cnn(C)c4)cc3n2)c1` [Example 0499], the IC50 in assay [1] and in assay [2] was below 1 µM each time.
For `CC(C)Oc1cnnc(Nc2ccc3ncc(-c4cnn(CCCN5CCOCC5)c4)cc3n2)c1` [Example 0501], the IC50 in assay [1] and in assay [2] was 1 to 10 µM each time.
As for `CC(C)c1cnnc(Nc2ccc3ncc(-c4cnc(N5CCNCC5)s4)cc3n2)c1` [Example 0502], the IC50 in assay [1] and in assay [2] was below 1 µM throughout.
In the case of `CC(C)c1cnnc(Nc2ccc3ncc(-n4cnc(CCN(C)C)c4)cc3n2)c1` [Example 0503, 7-(4-(2-(Dimethylamino)ethyl)-1H-imidazol-1-yl)-N-(5-isopropylpyridazin-3-yl)-1,5-naphthyridine-2-amine], the IC50 in assay [1] and in assay [2] was below 1 µM throughout.
Turning to `CC(=O)NCCc1cn(-c2cnc3ccc(Nc4cc(C(C)C)cnn4)nc3c2)cn1` [Example 0504, N-(2-(1-(6-((5-isopropylpyridazin-3-yl)amino)-1,5-naphthyridin-3-yl)-1H-imidazol-4-yl)ethyl)acetamide], the IC50 in assay [1] and in assay [2] was below 1 µM each time.
With `CC(C)c1cnnc(Nc2ccc3ncc(-n4cnc(CCNC(=O)OC(C)(C)C)c4)cc3n2)c1` [Example 0505, tert-Butyl (2-(1-(6-((5-isopropylpyridazin-3-yl)amino)-1,5-naphthyridin-3-yl)-1H-imidazol-4-yl)ethyl)carbamate], the figures for the IC50 in assay [1] and in assay [2] were below 1 µM and 1 to 10 µM, respectively.
Turning to `CC(C)c1cnnc(Nc2ccc3ncc(-n4cnc(CCN)c4)cc3n2)c1` [Example 0506, Hydrochloric acid salt of 7-(4-(2-aminoethyl)-1H-imidazol-1-yl)-N-(5-isopropylpyridazin-3-yl)-1,5-naphthyridine-2-amine], the IC50 is below 1 µM in assay [1] and 1 to 10 µM in assay [2].
The corresponding values for `CC(C)c1cnnc(Nc2ccc3ncc(-c4cnc(OC5CCN(C)CC5)s4)cc3n2)c1` [Example 0507] are below 1 µM and below 1 µM.
The corresponding values for `CC(C)c1cnnc(Nc2ccc3ncc(-n4cnc(CC#N)c4)cc3n2)c1` [Example 0508, 2-(1-(6-((5-Isopropylpyridazin-3-yl)amino)-1,5-naphthyridin-3-yl)-1H-imidazol-4-yl)acetonitrile] are below 1 µM and below 1 µM.
The corresponding values for `CC(C)c1cnnc(Nc2ccc3ncc(-c4cncn4C)cc3n2)c1` [Example 0509, N-(5-isopropylpyridazin-3-yl)-7-(1-methyl-1H-imidazol-5-yl)-1,5-naphthyridine-2-amine] are below 1 µM and 1 to 10 µM.
For the molecule `CC(C)c1cnnc(Nc2ccc3ncc(N4CCC(CO)CC4)cc3n2)c1` [Example 0511, (1-(6-((5-Isopropylpyridazin-3-yl)amino)-1,5-naphthyridin-3-yl)piperidin-4-yl)methanol], the results for the IC50 in assay [1] and in assay [2] were below 1 µM and 1 to 10 µM, respectively.
The corresponding values for `CC(C)c1cnnc(Nc2ccc3ncc(-n4cnc5ccccc54)cc3n2)c1` [Example 0512] are below 1 µM and 1 to 10 µM.
As for `CCc1nc(C)cn1-c1cnc2ccc(Nc3cc(C(C)C)cnn3)nc2c1` [Example 0514], the IC50 is below 1 µM in assay [1] and 1 to 10 µM in assay [2].
The corresponding values for `CN(C)c1cnnc(Nc2ccc3ncc(-c4cnn(C)c4)cc3n2)c1` [Example 0518] are below 1 µM and below 1 µM.
With `CC(C)c1cnnc(Nc2ccc3ncc(-c4cnn(CC5CCCCC5)c4)cc3n2)c1` [Example 0519, 7-(1-(Cyclohexylmethyl)-1H-pyrazol-4-yl)-N-(5-isopropylpyridazin-3-yl)-1,5-naphthyridine-2-amine], the IC50 was below 1 µM in assay [1] and 1 to 10 µM in assay [2].
The corresponding values for `Cn1cc(-c2cnc3ccc(Nc4cc(N5CCCC5)cnn4)nc3c2)cn1` [Example 0520] are below 1 µM and 1 to 10 µM.
In the same order, the values of `CC(C)c1cnnc(Nc2ccc3ncc(-c4cnn(C[C@H]5CC[C@H](O)CC5)c4)cc3n2)c1` [Example 0521] are below 1 µM and below 1 µM.
Turning to `CO[C@H]1CC[C@H](Cn2cc(-c3cnc4ccc(Nc5cc(C(C)C)cnn5)nc4c3)cn2)CC1` [Example 0522, N-(5-isopropylpyridazin-3-yl)-7-(1-(((1r,4r)-4-methoxycyclohexyl)methyl)-1H-pyrazol-4-yl)-1,5-naphthyridine-2-amine], the IC50 in assay [1] and in assay [2] was below 1 µM throughout.
Take `CCCN(CCC)c1cnnc(Nc2ccc3ncc(-c4cnn(C)c4)cc3n2)c1` [Example 0523]: the IC50 in assay [1] and in assay [2] was below 1 µM in each case.
For the molecule `CCN(CCO[Si](C)(C)C(C)(C)C)c1cnnc(Nc2ccc3ncc(-c4cnn(C)c4)cc3n2)c1` [Example 0524], the IC50 in assay [1] is below 1 µM; in assay [2], 10 to 50 µM.
In the same order, the values of `CCN(CCO)c1cnnc(Nc2ccc3ncc(-c4cnn(C)c4)cc3n2)c1` [Example 0525] are below 1 µM and below 1 µM.
Consider `Cn1cc(-c2cnc3ccc(Nc4cc(C(C)(C)C)cnn4)nc3c2)cn1` [Example 0526], for which the IC50 in assay [1] and in assay [2] was below 1 µM in each case.
As to `Cc1cnnc(Nc2ccc3ncc(-c4cn(C)nc4-c4cccnc4)cc3n2)c1` [Example 0527], the IC50 is 1 to 10 µM in assay [1] and below 1 µM in assay [2].
